From US20230286958A1, “PLASMA KALLIKREIN INHIBITORS” (Merck Sharp & Dohme LLC, priority 2020, published 2023) come the findings set out here.

pIC50: −log10 of the molar value. Some results are limits rather than exact numbers.

One test addresses Human plasma kallikrein (Homo sapiens (Human), UniProt P03952). Briefly: Kallikrein Assay (fluorogenic substrate Acetyl-K-P-R-AFC). The note with it: Plasma Kallikrein (PKal). Type of test: biochemical. The method in brief: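 Ki is derived from IC50 with the Cheng-Prusoff equation, and IC50 from the inflection point of a four-parameter logistic curve. The rate of AFC release is read with 0.5 nM purified enzyme and […] substrate at room temperature or 37 °C.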

A further test addresses human Factor XIa (Homo sapiens (Human), UniProt P03951). Briefly: Factor XIa Assay (fluorogenic substrate GPR-AFC). It counts as biochemical. The settings on record: Factor XIa (FXIa).

Human plasma kallikrein, sequence (P03952 391-638): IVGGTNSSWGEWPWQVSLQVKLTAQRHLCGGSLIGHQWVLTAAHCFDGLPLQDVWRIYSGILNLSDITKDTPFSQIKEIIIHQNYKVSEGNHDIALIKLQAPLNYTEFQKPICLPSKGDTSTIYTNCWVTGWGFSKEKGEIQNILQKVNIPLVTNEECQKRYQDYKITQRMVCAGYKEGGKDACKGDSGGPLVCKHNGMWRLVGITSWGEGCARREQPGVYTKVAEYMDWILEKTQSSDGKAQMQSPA
Human plasma kallikrein, sequence (P03952 20-390 partner): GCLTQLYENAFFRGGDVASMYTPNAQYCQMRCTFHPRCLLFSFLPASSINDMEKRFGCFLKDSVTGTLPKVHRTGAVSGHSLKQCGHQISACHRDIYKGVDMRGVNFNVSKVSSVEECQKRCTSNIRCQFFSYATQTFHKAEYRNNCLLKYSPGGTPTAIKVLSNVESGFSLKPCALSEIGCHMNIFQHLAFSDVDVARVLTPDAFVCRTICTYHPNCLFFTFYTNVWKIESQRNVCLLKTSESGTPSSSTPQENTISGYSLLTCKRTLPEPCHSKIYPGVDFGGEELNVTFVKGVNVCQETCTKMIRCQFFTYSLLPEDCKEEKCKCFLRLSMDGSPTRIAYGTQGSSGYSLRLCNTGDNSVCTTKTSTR
human Factor XIa, sequence (P03951 388-625 limits assumed): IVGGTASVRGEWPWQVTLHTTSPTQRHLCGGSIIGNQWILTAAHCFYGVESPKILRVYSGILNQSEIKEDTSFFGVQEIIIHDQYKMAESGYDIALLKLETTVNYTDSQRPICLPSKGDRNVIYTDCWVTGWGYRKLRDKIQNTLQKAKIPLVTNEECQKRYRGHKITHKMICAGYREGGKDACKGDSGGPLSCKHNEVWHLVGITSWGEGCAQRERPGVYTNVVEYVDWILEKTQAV
human Factor XIa, sequence (P03951 19-387 partner limits assumed): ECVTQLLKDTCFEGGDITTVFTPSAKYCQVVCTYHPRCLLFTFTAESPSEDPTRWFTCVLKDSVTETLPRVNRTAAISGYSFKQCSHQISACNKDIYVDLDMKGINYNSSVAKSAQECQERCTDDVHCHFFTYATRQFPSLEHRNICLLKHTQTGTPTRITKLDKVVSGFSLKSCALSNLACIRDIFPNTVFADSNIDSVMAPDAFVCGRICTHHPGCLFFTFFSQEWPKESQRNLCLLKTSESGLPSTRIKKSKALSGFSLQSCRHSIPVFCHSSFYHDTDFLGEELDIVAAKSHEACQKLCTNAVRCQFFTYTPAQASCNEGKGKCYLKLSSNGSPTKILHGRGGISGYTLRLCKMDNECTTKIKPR

Turning to `Cc1nc(N2C[C@H]3C[C@H]3C2=O)ncc1Cn1cc(NC(=O)c2nc(-c3c(OC(F)F)ccc(Cl)c3F)cnc2C)cn1` [Example 36, 6-(3-Chloro-6-(difluoromethoxy)-2-fluorophenyl)-3-methyl-N-(1-((4-methyl-2-((1R,5S)-2-oxo-3-azabicyclo[3.1.0]hexan-3-yl)pyrimidin-5-yl)methyl)-1H-pyrazol-4-yl)pyrazine-2-carboxamide], the pIC50 (commonly the IC50 on a negative log10 scale, so that one unit is a factor of ten) at Human plasma kallikrein is 8.52; on human Factor XIa it was 6.22.
In the case of `Cc1nc(N2C[C@H]3C[C@H]3C2=O)ncc1Cn1cc(NC(=O)c2cncc(-c3c(C(F)F)ccc(Cl)c3F)n2)cn1` [Example 24, 6-(3-Chloro-6-(difluoromethyl)-2-fluorophenyl)-N-(1-((4-methyl-2-((1R,5S)-2-oxo-3-azabicyclo[3.1.0]hexan-3-yl)pyrimidin-5-yl)methyl)-1H-pyrazol-4-yl)pyrazine-2-carboxamide], the pIC50 was 7.98 at Human plasma kallikrein and 5.51 against human Factor XIa.
Take `CC(c1cnc(N2Cc3cccnc3C2=O)nc1)n1cc(NC(=O)c2cncc(-c3c(C(F)F)ccc(Cl)c3F)n2)cn1` (racemic) [Example 26, (S and R)-6-(3-Chloro-6-(difluoromethyl)-2-fluorophenyl)-N-(1-(1-(2-(7-oxo-5,7-dihydro-6H-pyrrolo[3,4-b]pyridin-6-yl)pyrimidin-5-yl)ethyl)-1H-pyrazol-4-yl)pyrazine-2-carboxamide]: the values for the pIC50 on Human plasma kallikrein and against human Factor XIa were 8.21 and below 5.00, respectively.
Regarding `Cc1c(C(C)n2cc(NC(=O)c3cncc(-c4c(OC(F)F)ccc(Cl)c4F)n3)cn2)cnc(N2C[C@H]3C[C@H]3C2=O)c1F` (single isomer, unassigned) [Example 134, 6-(3-Chloro-6-(difluoromethoxy)-2-fluorophenyl)-N-(1-((R or S)-1-(5-fluoro-4-methyl-6-((1R,5S)-2-oxo-3-azabicyclo[3.1.0]hexan-3-yl)pyridin-3-yl)ethyl)-1H-pyrazol-4-yl)pyrazine-2-carboxamide], the negative logarithm of the IC50 (pIC50) was 7.86 against Human plasma kallikrein and 5.25 on human Factor XIa.
Consider `Cc1ncc(-c2c(C(F)F)ccc(Cl)c2F)nc1C(=O)Nc1cnn(C(C)c2cnc(N3C[C@H]4C[C@H]4C3=O)nc2)c1` (single isomer, unassigned) [Example 30, 6-(3-Chloro-6-(difluoromethyl)-2-fluorophenyl)-3-methyl-N-(1-((R or S)-1-(2-((1R,5S)-2-oxo-3-azabicyclo[3.1.0]hexan-3-yl)pyrimidin-5-yl)ethyl)-1H-pyrazol-4-yl)pyrazine-2-carboxamide], for which the pIC50 against Human plasma kallikrein was 8.74; against human Factor XIa, 5.55.
“6-(3-Chloro-2-fluoro-6-(methylsulfonyl)phenyl)-N-(1-((S or R)-1-(4-methyl-2-((1R,SS)-2-oxo-3-azabicyclo[3.1.0]hexan-3-yl)pyrimidin-5-yl)ethyl)- 1H-pyrazol-4-yl)pyrazine-2-carboxamide [Example 86]”: the pIC50 on Human plasma kallikrein is 7.44; against human Factor XIa it was below 5.00.
Regarding `Cc1nc(C(C)n2cc(NC(=O)c3nc(-c4c(C(F)F)ccc(Cl)c4F)cnc3C)cn2)ccc1N1C[C@H]2C[C@H]2C1=O` (single isomer, unassigned) [Example 59, 6-(3-Chloro-6-(difluoromethyl)-2-fluorophenyl)-3-methyl-N-(1-((R or S)-1-(6-methyl-5-((1R,5S)-2-oxo-3-azabicyclo[3.1.0]hexan-3-yl)pyridin-2-yl)ethyl)-1H-pyrazol-4-yl)pyrazine-2-carboxamide], the negative logarithm of the IC50 (pIC50) was 8.49 at Human plasma kallikrein and below 5.00 at human Factor XIa.
In the case of `Cc1c(C(C)n2cc(NC(=O)c3cncc(-c4c(C(F)F)ccc(Cl)c4F)n3)cn2)cnc(N2C[C@H]3C[C@H]3C2=O)c1C` (single isomer, unassigned) [Example 153, 6-(3-Chloro-6-(difluoromethyl)-2-fluorophenyl)-N-(1-((S or R)-1-(4,5-dimethyl-6-((1R,5S)-2-oxo-3-azabicyclo[3.1.0]hexan-3-yl)pyridin-3-yl)ethyl)-1H-pyrazol-4-yl)pyrazine-2-carboxamide], the pIC50 at Human plasma kallikrein was 8.70; at human Factor XIa, 5.66.
In the case of `Cc1cc(C(C)n2cc(NC(=O)c3nc(-c4c(C(F)F)ccc(Cl)c4F)cnc3C(C)O)cn2)nnc1N1C[C@H]2C[C@H]2C1=O` (single isomer, unassigned) [Example 230, 6-(3-Chloro-6-(difluoromethyl)-2-fluorophenyl)-3-((S or R)-1-hydroxyethyl)-N-(1-((S or R)-1-(5-methyl-6-((1R,5S)-2-oxo-3-azabicyclo[3.1.0]hexan-3-yl)pyridazin-3-yl)ethyl)-1H-pyrazol-4-yl)pyrazine-2-carboxamide], the results for the pIC50 against Human plasma kallikrein and at human Factor XIa were 8.96 and 5.87, respectively.
The like results for `COc1cc(C(C)n2cc(NC(=O)c3nc(-c4c(C(F)F)ccc(Cl)c4F)cnc3C)cn2)cnc1N1C[C@H]2C[C@H]2C1=O` (single isomer, unassigned) [Example 219, 6-(3-Chloro-6-(difluoromethyl)-2-fluorophenyl)-N-(1-((R or S)-1-(5-methoxy-6-((1R,5S)-2-oxo-3-azabicyclo[3.1.0]hexan-3-yl)pyridin-3-yl)ethyl)-1H-pyrazol-4-yl)-3-methylpyrazine-2-carboxamide] were, in that order, 9.52 and 6.26.
For `C[C@@H](c1cnc(N2C[C@H]3C[C@H]3C2=O)nc1)n1cc(NC(=O)c2nc(-c3c(C(F)F)ccc(Cl)c3F)cnc2C(O)C(F)(F)F)cn1` (single isomer, unassigned) [Example 177, 6-(3-Chloro-6-(difluoromethyl)-2-fluorophenyl)-N-(1-((S)-1-(2-((1R,5S)-2-oxo-3-azabicyclo[3.1.0]hexan-3-yl)pyrimidin-5-yl)ethyl)-1H-pyrazol-4-yl)-3-((R or S)-2,2,2-trifluoro-1-hydroxyethyl)pyrazine-2-carboxamide], in that order: 7.32 and below 5.00.
In the case of `Cc1ncc(-c2c(C(F)F)ccc(Cl)c2F)nc1C(=O)Nc1cnn(Cc2cnc(N3C[C@H]4C[C@H]4C3=O)c3c2OCO3)c1` [Example 149, 6-(3-Chloro-6-(difluoromethyl)-2-fluorophenyl)-3-methyl-N-(1-((4-((1R,5S)-2-oxo-3-azabicyclo[3.1.0]hexan-3-yl)-[1,3]dioxolo[4,5-c]pyridin-7-yl)methyl)-1H-pyrazol-4-yl)pyrazine-2-carboxamide], the results for the pIC50 against Human plasma kallikrein and against human Factor XIa were 9.05 and 6.61, respectively.
The like results for `COCc1ncc(-c2c(C(F)F)ccc(Cl)c2F)nc1C(=O)Nc1cnn(C2(c3cnc(N4C[C@H]5C[C@H]5C4=O)c(C)n3)CC2)c1` [Example 221, 6-(3-Chloro-6-(difluoromethyl)-2-fluorophenyl)-3-(methoxymethyl)-N-(1-(1-(6-methyl-5-((1R,5S)-2-oxo-3-azabicyclo[3.1.0]hexan-3-yl)pyrazin-2-yl)cyclopropyl)-1H-pyrazol-4-yl)pyrazine-2-carboxamide] were, in that order, 7.83 and below 5.00.
Take `Cc1cc(Cn2cc(NC(=O)c3cncc(-c4c(C(F)F)ccc(Cl)c4F)n3)cn2)ncc1N1C[C@H]2C[C@H]2C1=O` [Example 65, 6-(3-Chloro-6-(difluoromethyl)-2-fluorophenyl)-N-(1-((4-methyl-5-((1R,5S)-2-oxo-3-azabicyclo[3.1.0]hexan-3-yl)pyridin-2-yl)methyl)-1H-pyrazol-4-yl)pyrazine-2-carboxamide]: the values for the pIC50 against Human plasma kallikrein and against human Factor XIa were 7.45 and below 5.00, respectively.
